In ChEMBL document CHEMBL1142967, “Bis-cycloSal-d4T-monophosphates: drugs that deliver two molecules of bioactive nucleotides” (J Med Chem, 2007):

Columns and labels:
Cholinesterase = Cholinesterase (Homo sapiens, UniProt P06276); experiment: Inhibition of human serum BChE
[1] = system: Human immunodeficiency virus 1; experiment: Antiviral activity against HIV1 in CEM/0 cells; assay type: functional, organism-based
[2] = Hydrolytic stability in 25 mM phosphate buffer at pH 7.3, 37 degC; assay type: physicochemical; details: for half-life: phosphate buffer; for t1/2: buffer
[3] = system: Human immunodeficiency virus 2; experiment: Antiviral activity against H1V2 in CEM/0 cells; assay type: functional, organism-based
[4] = Cytotoxicity against CEM/0 cells; assay type: cell-based, CCRF-CEM; details: human
[5] = system: Human immunodeficiency virus 2; experiment: Antiviral activity against H1V2 in TK-deficient CEM cells; assay type: functional, organism-based, CCRF-CEM
[6] = Human immunodeficiency virus 1, CCRF-CEM
[7] = Human immunodeficiency virus 2, CCRF-CEM

Chain of Cholinesterase (P06276 whole entry): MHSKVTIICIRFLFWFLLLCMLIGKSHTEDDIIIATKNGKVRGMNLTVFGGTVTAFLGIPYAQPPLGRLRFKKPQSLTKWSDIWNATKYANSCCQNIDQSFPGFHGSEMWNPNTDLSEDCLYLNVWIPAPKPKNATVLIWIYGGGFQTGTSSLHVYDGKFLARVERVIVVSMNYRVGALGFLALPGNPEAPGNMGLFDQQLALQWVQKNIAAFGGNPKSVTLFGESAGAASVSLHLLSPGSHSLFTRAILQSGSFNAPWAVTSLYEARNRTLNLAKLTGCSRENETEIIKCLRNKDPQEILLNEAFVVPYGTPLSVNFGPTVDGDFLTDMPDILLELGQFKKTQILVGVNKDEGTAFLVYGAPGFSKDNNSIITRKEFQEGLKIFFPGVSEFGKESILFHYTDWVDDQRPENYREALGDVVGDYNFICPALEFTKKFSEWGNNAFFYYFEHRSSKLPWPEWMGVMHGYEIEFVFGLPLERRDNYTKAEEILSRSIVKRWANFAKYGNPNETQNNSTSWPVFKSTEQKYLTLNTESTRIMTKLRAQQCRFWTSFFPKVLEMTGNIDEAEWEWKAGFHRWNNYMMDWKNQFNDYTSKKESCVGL

With `Cc1cn([C@H]2C=C[C@@H](COP(=O)(O)OCc3cccc(-c4cccc5c4OP(=O)(OC[C@@H]4C=C[C@H](n6cc(C)c(=O)[nH]c6=O)O4)OC5)c3O)O2)c(=O)[nH]c1=O` (stereo not given in full) the IC50 (Cholinesterase) was 2.3 µM.

Molecule `Cc1cc2c(c(-c3cc(C)cc4c3OP(=O)(OC[C@@H]3C=C[C@H](n5cc(C)c(=O)[nH]c5=O)O3)OC4)c1)OP(=O)(OC[C@@H]1C=C[C@H](n3cc(C)c(=O)[nH]c3=O)O1)OC2` (stereo not given in full) has an EC50 [1, 6] of 0.37 µM, a half-life [2] of 12 h and an EC50 [3, 7] of 0.41 µM. For the same molecule, the CC50 ([4]; CEM/0 cells) was 67.1 µM, the IC50 (Cholinesterase) was greater than 50 µM and the EC50 [5, 7] was 1.6 µM.

Molecule `Cc1cn([C@H]2C=C[C@@H](COP3(=O)OCc4cccc(-c5cccc6c5OC(C)(C)OC6)c4O3)O2)c(=O)[nH]c1=O` (stereo in doubt; 33(Sp)) has an EC50 [1, 6] of 0.5 µM, a half-life [2] of 14 h and an EC50 [3, 7] of 0.4 µM. The CC50 ([4]; CEM/0 cells) was 89.3 µM, the IC50 (Cholinesterase) was 3.6 µM and the EC50 ([5]; ccrf-cem) was 3 µM.

With `Cc1cn([C@H]2C=C[C@@H](CO)O2)c(=O)[nH]c1=O` [STAVUDINE] the EC50 [1, 6] was 0.25 µM, the EC50 [3, 7] was 0.19 µM and the CC50 ([4]; CEM/0 cells) was 105 µM. It also gave an EC50 [5, 7] of 51 µM.

Molecule `Cc1cn([C@H]2C=C[C@@H](COP3(=O)OCc4cccc(-c5cccc6c5OP(=O)(OC[C@@H]5C=C[C@H](n7cc(C)c(=O)[nH]c7=O)O5)OC6)c4O3)O2)c(=O)[nH]c1=O` (single isomer, unassigned; diastereomer 2) has an EC50 ([1]; cem/0) of 0.21 µM, an EC50 ([3]; cem/0) of 0.22 µM and a CC50 ([4]; ccrf-cem) of 90.7 µM. It also gave an IC50 (Cholinesterase) greater than 50 µM and an EC50 ([5]; ccrf-cem) of 2.37 µM.

Molecule `Cc1cn([C@H]2C=C[C@@H](COP3(=O)OCc4cccc(-c5cccc6c5OC(C)(C)OC6)c4O3)O2)c(=O)[nH]c1=O` (stereo in doubt; 33) has an EC50 ([1]; cem/0) of 0.35 µM, a t1/2 [2] of 16 h and a CC50 ([4]; ccrf-cem) of 65 µM. For the same molecule, the IC50 (Cholinesterase) was 4.7 µM and the EC50 ([5]; ccrf-cem) was 1.07 µM.

In the case of `Cc1cn([C@H]2C=C[C@@H](COP3(=O)OCc4cccc(-c5cccc(CO)c5O)c4O3)O2)c(=O)[nH]c1=O` (stereo in doubt; 29), the t1/2 [2] is reported as 1.3 h and the IC50 (Cholinesterase) is reported as 2.3 µM.

Molecule `Cc1cn([C@H]2C=C[C@@H](COP3(=O)OCc4cccc(-c5cccc6c5OP(=O)(OC[C@@H]5C=C[C@H](n7cc(C)c(=O)[nH]c7=O)O5)OC6)c4O3)O2)c(=O)[nH]c1=O` (stereo in doubt; 6) has an EC50 [1, 6] of 0.19 µM, an EC50 [3, 7] of 0.27 µM and a CC50 ([4]; ccrf-cem) of 27.8 µM. It also gave an IC50 (Cholinesterase) of 40 µM and an EC50 [5, 7] of 2.33 µM.

In the case of `Cc1cn([C@H]2C=C[C@@H](COP3(=O)OCc4cccc(-c5cccc(CO)c5O)c4O3)O2)c(=O)[nH]c1=O` (stereo in doubt; 29(Sp)), the EC50 [1, 6] is reported as 0.34 µM, the half-life [2] is reported as 1.1 h and the EC50 [3, 7] is reported as 0.4 µM. It also gave a CC50 ([4]; CEM/0 cells) of 78.7 µM, an IC50 (Cholinesterase) of 0.79 µM and an EC50 ([5]; ccrf-cem) of 1.5 µM.

`Cc1cn([C@H]2C=C[C@@H](COP3(=O)OCc4cccc(-c5ccccc5)c4O3)O2)c(=O)[nH]c1=O` (stereo not given in full) showed an EC50 [1, 6] of 0.13 µM, a half-life [2] of 5.1 h and an EC50 [3, 7] of 0.27 µM. The CC50 ([4]; CEM/0 cells) was 22 µM, the IC50 (Cholinesterase) was 0.35 µM and the EC50 [5, 7] was 0.28 µM.

`OCc1cccc(-c2cccc(CO)c2O)c1O` showed an EC50 [1, 6] greater than 150 µM, an EC50 [3, 7] greater than 150 µM and a CC50 ([4]; CEM/0 cells) greater than 150 µM. It also gave an IC50 (Cholinesterase) greater than 50 µM.

Molecule `Cc1cn([C@H]2C=C[C@@H](COP3(=O)OCc4cccc(-c5cccc(CO)c5O)c4O3)O2)c(=O)[nH]c1=O` (stereo in doubt; 29(Rp)) has an EC50 ([1]; cem/0) of 0.27 µM, a t1/2 [2] of 1.4 h and an EC50 ([3]; cem/0) of 0.5 µM. The CC50 ([4]; ccrf-cem) was 69.4 µM, the IC50 (Cholinesterase) was greater than 50 µM and the EC50 ([5]; ccrf-cem) was 0.7 µM.

Molecule `Cc1cn([C@H]2C=C[C@@H](COP3(=O)OCc4cccc(-c5cccc6c5OC(C)(C)OC6)c4O3)O2)c(=O)[nH]c1=O` (stereo in doubt; 33(Rp)) has an EC50 ([1]; cem/0) of 0.36 µM, a t1/2 [2] of 21 h and a CC50 ([4]; ccrf-cem) of 55.3 µM. For the same molecule, the IC50 (Cholinesterase) was greater than 50 µM and the EC50 ([5]; ccrf-cem) was 0.55 µM.

`Cc1cn([C@H]2C=C[C@@H](COP3(=O)OCc4cccc(-c5cccc6c5OP(=O)(OC[C@@H]5C=C[C@H](n7cc(C)c(=O)[nH]c7=O)O5)OC6)c4O3)O2)c(=O)[nH]c1=O` (single isomer, unassigned; diastereomer 1) gave an EC50 ([1]; cem/0) of 0.25 µM, an EC50 ([3]; cem/0) of 0.3 µM and a CC50 ([4]; ccrf-cem) of 107 µM. It also gave an IC50 (Cholinesterase) of 14 µM and an EC50 ([5]; ccrf-cem) of 3.33 µM.

In the case of `Cc1cc(CO)c(O)c(-c2cc(C)cc(CO)c2O)c1`, the EC50 [1, 6] is reported as greater than 150 µM, the EC50 [3, 7] is reported as greater than 150 µM and the CC50 ([4]; CEM/0 cells) is reported as greater than 150 µM. For the same molecule, the IC50 (Cholinesterase) was greater than 50 µM.
